Measurements reported in ChEMBL document CHEMBL1201862, “PubChem BioAssay data set” (2004).
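Following 48 hours of exposure in 96-well plates, responses at five concentrations were used to interpolate endpoints linearly. At the GI50, growth is halved.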 The source made the active and inactive calls. Cut-off read from the data, not from the text of the source: active = GI50 up to about 1.1 µM and inactive = higher.

What was measured:
Test in all cases: NCI tumour cell line growth inhibition, 48 h
[1] = test system: 786-0
[2] = test system: A549
[3] = test system: CAKI-1
[4] = test system: HCT-15
[5] = test system: HL-60
[6] = test system: IGROV-1
[7] = test system: KM12
[8] = test system: LOX IMVI
[9] = test system: MDA-MB-231
[10] = test system: NCI-H23
[11] = test system: OVCAR-4
[12] = test system: OVCAR-5
[13] = test system: SF-268
[14] = test system: SF-295
[15] = test system: SK-MEL-28
[16] = test system: SNB-19
[17] = test system: SW-620
[18] = test system: UO-31
[19] = test system: HCC 2998

| Structure (SMILES) | GI50 [1] | GI50 [2] | GI50 [3] | GI50 [4] [µM] | GI50 [5] | GI50 [6] | GI50 [7] | GI50 [8] | GI50 [9] | GI50 [10] | GI50 [11] | GI50 [12] | GI50 [13] | GI50 [14] | GI50 [15] | GI50 [16] | GI50 [17] | GI50 [18] | GI50 [19] |
| --- | --- | --- | --- | --- | --- | --- | --- | --- | --- | --- | --- | --- | --- | --- | --- | --- | --- | --- | --- |
| OC(Cc1ccccc1)(Cc1ccccc1)c1ccccc1 | 15.2 µM (inactive) | 19.5 µM (inactive) | 23.2 µM (inactive) | 20.5 | 22 µM (inactive) | 16.3 µM (inactive) | 18.3 µM (inactive) | 18.3 µM (inactive) | 19 µM (inactive) | 18.8 µM (inactive) | 16.9 µM (inactive) | 17.2 µM (inactive) | 14.9 µM (inactive) | 19.3 µM (inactive) | 21.9 µM (inactive) | 26.1 µM (inactive) | 22.2 µM (inactive) | 17.5 µM (inactive) |  |
| CCC/C=C/c1cc2c(cc1O)CC[C@@H]1[C@@H]2CC[C@]2(C)[C@@H](O)CC[C@@H]12 | 15.2 µM (inactive) | 18.1 µM (inactive) | 21.2 µM (inactive) | 18.6 |  | 21.1 µM (inactive) | 17.3 µM (inactive) | 14.8 µM (inactive) | 15.5 µM (inactive) | 17.5 µM (inactive) | 19 µM (inactive) | 18.4 µM (inactive) | 18.4 µM (inactive) | 17.6 µM (inactive) | 19.3 µM (inactive) | 23.6 µM (inactive) | 20.6 µM (inactive) | 16.3 µM (inactive) | 21.5 µM (inactive) |
| NCCC1CN(C(=O)OCc2ccccc2)c2ccccc21 (configuration not stated) | 16.1 µM (inactive) | 27.5 µM (inactive) | 21.4 µM (inactive) | 1.78 |  | 9.48 µM (inactive) | 17.8 µM (inactive) | 4.12 µM (inactive) | 19.1 µM (inactive) | 15 µM (inactive) | 20.4 µM (inactive) | 17.1 µM (inactive) | 17.1 µM (inactive) | 18.3 µM (inactive) | 18.6 µM (inactive) | 19.5 µM (inactive) | 6.67 µM (inactive) | 12.7 µM (inactive) | 16.6 µM (inactive) |
| ON[C@H]1C[C@@H](n2cnc3c(NC4CC4)ncnc32)[C@H](O)[C@@H]1O | > 100 µM (inactive) | > 100 µM (inactive) | > 100 µM (inactive) | > 100 |  | > 100 µM (inactive) | > 100 µM (inactive) | > 100 µM (inactive) | > 100 µM (inactive) | > 100 µM (inactive) | > 100 µM (inactive) | > 100 µM (inactive) | > 100 µM (inactive) | > 100 µM (inactive) | > 100 µM (inactive) | > 100 µM (inactive) | > 100 µM (inactive) | > 100 µM (inactive) | > 100 µM (inactive) |
| c1ccc2c(c1)/C(=N\NC1=NCCN1)c1nc3ccccc3nc1-2 | 3.91 µM (inactive) | 3.86 µM (inactive) |  | 3.52 | 3.83 µM (inactive) | 6.12 µM (inactive) | 3.88 µM (inactive) |  | 10.5 µM (inactive) | 8.73 µM (inactive) | 17.6 µM (inactive) | 6.64 µM (inactive) | 6.67 µM (inactive) | 2.45 µM (inactive) | 13.5 µM (inactive) | 6.44 µM (inactive) | 1.36 µM (inactive) |  | 4.91 µM (inactive) |
| S=C(N1CCN(c2ccccc2)CC1)N1CCN(c2ccccc2)CC1 | > 100 µM (inactive) | > 100 µM (inactive) | > 100 µM (inactive) | > 100 |  | 90.8 µM (inactive) | > 100 µM (inactive) |  | > 100 µM (inactive) | > 100 µM (inactive) | > 100 µM (inactive) | > 100 µM (inactive) | > 100 µM (inactive) | 52.1 µM (inactive) | 86.9 µM (inactive) | > 100 µM (inactive) | > 100 µM (inactive) | > 100 µM (inactive) | > 100 µM (inactive) |
| OCC(O)C(O)C(C=NNc1ncnc2ccc(Br)cc12)=NNc1ncnc2ccc(Br)cc12 (configuration not stated) | 0.834 µM (active) | 2.88 µM (inactive) | 0.83 µM (active) |  | 0.282 µM (active) | 0.726 µM (active) | 2.72 µM (inactive) | 0.745 µM (active) | 1.88 µM (inactive) |  | 0.383 µM (active) | 3.58 µM (inactive) | 1.29 µM (inactive) | 3.25 µM (inactive) | 1.45 µM (inactive) | 2.17 µM (inactive) | 0.809 µM (active) | 2.78 µM (inactive) |  |
| OCC1OC(NCCNCCNC2OC(CO)C(O)C(O)C2O)C(O)C(O)C1O (configuration not stated) | > 100 µM (inactive) | > 100 µM (inactive) |  | > 100 | > 100 µM (inactive) | > 100 µM (inactive) |  | > 100 µM (inactive) | > 100 µM (inactive) | > 100 µM (inactive) |  | > 100 µM (inactive) | > 100 µM (inactive) | > 100 µM (inactive) | > 100 µM (inactive) | > 100 µM (inactive) | > 100 µM (inactive) | > 100 µM (inactive) | > 100 µM (inactive) |
